Measured values as given in patent US20060140885A1, “Method of reducing oral tissue inflammation using magnolia extract” (priority 2004, published 2006).

Test system: S. mutans
Test: Minimal Inhibitory Concentration (MIC) in vitro test against S. mutans
Type: cell-based
Excerpt: The compositions of the present invention comprise an extract of magnolia. As referred to here, such an “extract” of magnolia is an extract from dried cortex, or bark, of a plant from the Magnoliaceae family, such as Magnolia officinalis, (hereinafter “magnolia”) or a synthetic or semi-synthetic equivalent of such an extract or an active component or compound thereof. […] It should be noted that any plant from the Magnoliaceae family is suitable for the present invention and may be used in alternate embodiments, preferably such that the extract comprises an antimicrobially effective concentration of a compound selected from the group consisting of magnolol, honokiol, tetrahydromagnolol, tetrahydrohonokiol, and mixtures thereof.

Row | SMILES | bactericidal properties against S. mutans (MIC test)
1 | C=CCc1ccc(O)c(-c2ccc(O)c(CC=C)c2)c1 [honokiol] | bactericidal properties
2 | C=CCc1ccc(O)c(-c2cc(CC=C)ccc2O)c1 [magnolol] | bactericidal properties
3 | CCCc1ccc(O)c(-c2ccc(O)c(CCC)c2)c1 [tetrahydrohonokiol] | bactericidal properties
4 | CCCc1ccc(O)c(-c2cc(CCC)ccc2O)c1 [tetrahydromagnolol] | bactericidal properties
